Test results reported in ChEMBL document CHEMBL4507290 (2021).

Experiments:
[1] = target: Serine/threonine-protein kinase PknB (Mycobacterium tuberculosis) (UniProt P9WI81); details: Compound concentration 1000.0 nM
[2] = target: Serine/threonine-protein kinase DCLK2 (Homo sapiens) (UniProt Q8N568); details: Compound concentration 1000.0 nM
[3] = target: Cyclin-dependent kinase 14 (Homo sapiens) (UniProt O94921); details: Compound concentration 1000.0 nM
[4] = target: Cyclin-dependent kinase 4 (Homo sapiens) (UniProt P11802); details: Compound concentration 1000.0 nM
[5] = target: Serine/threonine-protein kinase D1 (Homo sapiens) (UniProt Q15139); details: Compound concentration 1000.0 nM
[6] = target: Ribosomal protein S6 kinase beta-1 (Homo sapiens) (UniProt P23443); details: Compound concentration 1000.0 nM
[7] = tested on: eIF-2-alpha kinase GCN2 (Homo sapiens), Q9P2K8 [S808G]; details: Compound concentration 1000.0 nM
[8] = target: Cyclin-dependent kinase 8 (Homo sapiens) (UniProt P49336); details: Compound concentration 1000.0 nM
[9] = target: Microtubule-associated serine/threonine-protein kinase 1 (Homo sapiens) (UniProt Q9Y2H9); details: Compound concentration 1000.0 nM
[10] = target: Myosin-IIIa (Homo sapiens) (UniProt Q8NEV4); details: Compound concentration 1000.0 nM
[11] = target: Homeodomain-interacting protein kinase 4 (Homo sapiens) (UniProt Q8NE63); details: Compound concentration 1000.0 nM
[12] = target: Bone morphogenetic protein receptor type-2 (Homo sapiens) (UniProt Q13873); details: Compound concentration 1000.0 nM
[13] = target: Serine/threonine-protein kinase MRCK alpha (Homo sapiens) (UniProt Q5VT25); details: Compound concentration 1000.0 nM
[14] = target: Ankyrin repeat and protein kinase domain-containing protein 1 (Homo sapiens) (UniProt Q8NFD2); details: Compound concentration 1000.0 nM
[15] = target: Serine/threonine-protein kinase LATS1 (Homo sapiens) (UniProt O95835); details: Compound concentration 1000.0 nM
[16] = target: SRSF protein kinase 1 (Homo sapiens) (UniProt Q96SB4); details: Compound concentration 1000.0 nM
[17] = target: Serine/threonine-protein kinase pim-2 (Homo sapiens) (UniProt Q9P1W9); details: Compound concentration 1000.0 nM
[18] = target: Cytoplasmic tyrosine-protein kinase BMX (Homo sapiens) (UniProt P51813); details: Compound concentration 1000.0 nM
[19] = target: Phosphatidylinositol 4-phosphate 5-kinase type-1 alpha (Homo sapiens) (UniProt Q99755); details: Compound concentration 1000.0 nM
[20] = target: Tyrosine-protein kinase ITK/TSK (Homo sapiens) (UniProt Q08881); details: Compound concentration 1000.0 nM
[21] = tested on: Mast/stem cell growth factor receptor Kit (Homo sapiens), P10721 [V559D,T670I]; details: Compound concentration 1000.0 nM
[22] = target: Ribosomal protein S6 kinase alpha-6 (Homo sapiens) (UniProt Q9UK32); details: Compound concentration 1000.0 nM
[23] = target: RAC-gamma serine/threonine-protein kinase (Homo sapiens) (UniProt Q9Y243); details: Compound concentration 1000.0 nM
[24] = target: Calcium/calmodulin-dependent protein kinase type 1 (Homo sapiens) (UniProt Q14012); details: Compound concentration 1000.0 nM
[25] = target: Serine/threonine-protein kinase ULK2 (Homo sapiens) (UniProt Q8IYT8); details: Compound concentration 1000.0 nM
[26] = target: Tyrosine-protein kinase JAK1 (Homo sapiens) (UniProt P23458); details: Compound concentration 1000.0 nM
[27] = species: Rattus norvegicus; details: Compound concentration 10.0 uM
[28] = target: Serine/threonine-protein kinase PAK 1 (Homo sapiens) (UniProt Q13153); details: Compound concentration 1000.0 nM
[29] = target: Serine/threonine-protein kinase Sgk1 (Homo sapiens) (UniProt O00141); details: Compound concentration 1000.0 nM
[30] = target: Insulin receptor-related protein (Homo sapiens) (UniProt P14616); details: Compound concentration 1000.0 nM
[31] = target: Tyrosine-protein kinase JAK3 (Homo sapiens) (UniProt P52333); details: Compound concentration 1000.0 nM
[32] = target: Serine/threonine-protein kinase PAK 2 (Homo sapiens) (UniProt Q13177); details: Compound concentration 1000.0 nM
[33] = target: Ephrin type-B receptor 6 (Homo sapiens) (UniProt O15197); details: Compound concentration 1000.0 nM
[34] = target: Aurora kinase C (Homo sapiens) (UniProt Q9UQB9); details: Compound concentration 1000.0 nM
[35] = target: TRAF2 and NCK-interacting protein kinase (Homo sapiens) (UniProt Q9UKE5); details: Compound concentration 1000.0 nM
[36] = target: Ephrin type-B receptor 2 (Homo sapiens) (UniProt P29323); details: Compound concentration 1000.0 nM
[37] = target: Mitogen-activated protein kinase 13 (Homo sapiens) (UniProt O15264); details: Compound concentration 1000.0 nM
[38] = tested on: Fibroblast growth factor receptor 3 (Homo sapiens), P22607 [G697C]; details: Compound concentration 1000.0 nM
[39] = tested on: Phosphatidylinositol 4,5-bisphosphate 3-kinase catalytic subunit alpha isoform (Homo sapiens), P42336 [E545K]; details: Compound concentration 1000.0 nM
[40] = target: Phosphatidylinositol 4,5-bisphosphate 3-kinase catalytic subunit delta isoform (Homo sapiens) (UniProt O00329); details: Compound concentration 1000.0 nM
[41] = target: Phosphorylase b kinase gamma catalytic chain, skeletal muscle/heart isoform (Homo sapiens) (UniProt Q16816); details: Compound concentration 1000.0 nM
[42] = target: Tyrosine-protein kinase Blk (Homo sapiens) (UniProt P51451); details: Compound concentration 1000.0 nM
[43] = target: GABA-A receptor; anion channel (Rattus norvegicus) (UniProt O09028+P15431+P18506+P18508+P19969+P20236+P23574+P23576+P28471+P28473+P30191+P62813+P63079+P63138+Q91ZM7+Q9ES14); details: Compound concentration 10.0 uM
[44] = target: SRSF protein kinase 3 (Homo sapiens) (UniProt Q9UPE1); details: Compound concentration 1000.0 nM

Phosphatidylinositol 4-phosphate 5-kinase type-1 alpha (Homo sapiens), sequence (Q99755 whole entry): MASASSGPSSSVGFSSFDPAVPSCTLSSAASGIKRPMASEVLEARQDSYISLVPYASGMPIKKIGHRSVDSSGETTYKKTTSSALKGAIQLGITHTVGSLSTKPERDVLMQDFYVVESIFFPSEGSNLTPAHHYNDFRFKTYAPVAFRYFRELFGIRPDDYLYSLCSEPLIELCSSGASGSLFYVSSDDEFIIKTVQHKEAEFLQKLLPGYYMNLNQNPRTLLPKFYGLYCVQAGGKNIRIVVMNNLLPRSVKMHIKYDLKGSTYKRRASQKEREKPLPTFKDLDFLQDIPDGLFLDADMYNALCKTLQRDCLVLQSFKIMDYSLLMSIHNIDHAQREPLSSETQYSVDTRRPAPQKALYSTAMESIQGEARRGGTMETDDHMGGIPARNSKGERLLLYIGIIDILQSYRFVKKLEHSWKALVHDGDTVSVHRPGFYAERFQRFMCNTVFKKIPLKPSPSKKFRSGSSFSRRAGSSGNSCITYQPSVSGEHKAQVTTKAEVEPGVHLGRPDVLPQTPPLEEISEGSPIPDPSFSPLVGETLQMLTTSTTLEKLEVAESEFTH
Serine/threonine-protein kinase Sgk1 (Homo sapiens), sequence (O00141 whole entry): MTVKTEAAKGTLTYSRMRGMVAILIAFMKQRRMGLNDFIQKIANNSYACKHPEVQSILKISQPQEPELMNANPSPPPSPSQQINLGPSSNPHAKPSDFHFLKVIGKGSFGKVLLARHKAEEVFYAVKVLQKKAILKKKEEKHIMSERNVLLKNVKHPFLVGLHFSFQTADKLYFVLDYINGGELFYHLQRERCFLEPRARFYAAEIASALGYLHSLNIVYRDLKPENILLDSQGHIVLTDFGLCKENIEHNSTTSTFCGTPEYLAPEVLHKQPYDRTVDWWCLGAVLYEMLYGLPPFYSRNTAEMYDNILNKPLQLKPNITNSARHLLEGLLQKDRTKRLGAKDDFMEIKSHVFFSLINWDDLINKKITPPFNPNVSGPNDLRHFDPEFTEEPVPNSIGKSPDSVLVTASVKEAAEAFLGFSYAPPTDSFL
Serine/threonine-protein kinase DCLK2 (Homo sapiens), sequence (Q8N568 whole entry): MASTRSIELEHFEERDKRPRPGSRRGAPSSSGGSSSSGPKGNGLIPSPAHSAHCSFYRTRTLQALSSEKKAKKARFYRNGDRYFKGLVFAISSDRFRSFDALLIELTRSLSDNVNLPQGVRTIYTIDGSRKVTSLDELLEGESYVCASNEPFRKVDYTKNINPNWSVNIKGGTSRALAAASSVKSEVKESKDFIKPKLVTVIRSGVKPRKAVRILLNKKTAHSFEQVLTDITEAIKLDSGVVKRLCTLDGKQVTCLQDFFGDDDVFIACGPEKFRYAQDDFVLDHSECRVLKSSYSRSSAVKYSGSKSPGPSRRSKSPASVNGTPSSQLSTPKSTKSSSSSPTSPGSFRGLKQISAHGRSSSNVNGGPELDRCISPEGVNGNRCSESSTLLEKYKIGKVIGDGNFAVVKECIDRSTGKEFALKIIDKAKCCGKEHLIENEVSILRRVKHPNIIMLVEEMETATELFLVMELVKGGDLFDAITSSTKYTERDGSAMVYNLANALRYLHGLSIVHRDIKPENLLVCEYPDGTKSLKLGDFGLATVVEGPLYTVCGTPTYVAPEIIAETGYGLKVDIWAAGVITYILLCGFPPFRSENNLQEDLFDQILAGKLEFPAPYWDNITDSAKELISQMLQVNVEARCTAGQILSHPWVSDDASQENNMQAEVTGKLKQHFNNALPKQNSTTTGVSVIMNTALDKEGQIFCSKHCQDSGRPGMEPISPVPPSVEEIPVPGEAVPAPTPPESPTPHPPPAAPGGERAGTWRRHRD
Mast/stem cell growth factor receptor Kit (Homo sapiens), P10721 [V559D,T670I], sequence (P10721 whole entry V559D/T670I): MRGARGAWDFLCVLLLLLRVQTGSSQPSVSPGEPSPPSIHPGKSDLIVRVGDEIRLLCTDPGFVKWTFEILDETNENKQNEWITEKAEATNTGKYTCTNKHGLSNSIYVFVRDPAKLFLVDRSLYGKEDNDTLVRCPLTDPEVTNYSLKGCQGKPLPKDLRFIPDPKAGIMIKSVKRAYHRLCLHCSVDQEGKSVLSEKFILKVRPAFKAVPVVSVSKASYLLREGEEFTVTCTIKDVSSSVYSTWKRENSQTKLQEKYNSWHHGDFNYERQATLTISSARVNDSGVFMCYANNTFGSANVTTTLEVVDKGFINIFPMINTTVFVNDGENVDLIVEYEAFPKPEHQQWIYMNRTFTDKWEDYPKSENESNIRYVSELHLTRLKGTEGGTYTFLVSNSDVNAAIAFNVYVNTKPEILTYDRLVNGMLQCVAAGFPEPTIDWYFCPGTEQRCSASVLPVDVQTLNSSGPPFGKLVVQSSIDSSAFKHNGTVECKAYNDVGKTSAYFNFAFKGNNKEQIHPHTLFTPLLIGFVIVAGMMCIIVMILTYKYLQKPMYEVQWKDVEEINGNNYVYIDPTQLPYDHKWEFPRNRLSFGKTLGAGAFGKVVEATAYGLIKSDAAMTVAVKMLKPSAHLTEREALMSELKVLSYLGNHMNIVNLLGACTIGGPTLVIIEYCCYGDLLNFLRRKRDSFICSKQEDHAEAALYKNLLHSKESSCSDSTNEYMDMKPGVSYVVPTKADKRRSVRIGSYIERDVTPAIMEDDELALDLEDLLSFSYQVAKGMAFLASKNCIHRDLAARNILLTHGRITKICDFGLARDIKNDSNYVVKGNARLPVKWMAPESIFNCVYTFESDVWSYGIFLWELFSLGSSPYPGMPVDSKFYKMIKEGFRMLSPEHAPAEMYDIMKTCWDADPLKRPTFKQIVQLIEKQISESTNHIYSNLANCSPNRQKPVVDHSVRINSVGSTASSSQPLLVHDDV
Phosphorylase b kinase gamma catalytic chain, skeletal muscle/heart isoform (Homo sapiens), sequence (Q16816 whole entry, looked up, canonical isoform): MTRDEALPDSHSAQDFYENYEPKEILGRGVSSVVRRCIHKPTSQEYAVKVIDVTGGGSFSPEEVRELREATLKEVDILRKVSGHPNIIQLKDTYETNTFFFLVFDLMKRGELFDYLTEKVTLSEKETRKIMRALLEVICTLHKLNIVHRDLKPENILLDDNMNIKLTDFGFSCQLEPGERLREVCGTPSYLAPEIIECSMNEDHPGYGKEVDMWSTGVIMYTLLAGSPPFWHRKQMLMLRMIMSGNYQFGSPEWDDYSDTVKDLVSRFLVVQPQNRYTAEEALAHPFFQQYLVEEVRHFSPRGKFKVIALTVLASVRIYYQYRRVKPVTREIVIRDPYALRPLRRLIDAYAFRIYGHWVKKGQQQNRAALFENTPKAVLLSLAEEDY
Serine/threonine-protein kinase ULK2 (Homo sapiens), sequence (Q8IYT8 whole entry): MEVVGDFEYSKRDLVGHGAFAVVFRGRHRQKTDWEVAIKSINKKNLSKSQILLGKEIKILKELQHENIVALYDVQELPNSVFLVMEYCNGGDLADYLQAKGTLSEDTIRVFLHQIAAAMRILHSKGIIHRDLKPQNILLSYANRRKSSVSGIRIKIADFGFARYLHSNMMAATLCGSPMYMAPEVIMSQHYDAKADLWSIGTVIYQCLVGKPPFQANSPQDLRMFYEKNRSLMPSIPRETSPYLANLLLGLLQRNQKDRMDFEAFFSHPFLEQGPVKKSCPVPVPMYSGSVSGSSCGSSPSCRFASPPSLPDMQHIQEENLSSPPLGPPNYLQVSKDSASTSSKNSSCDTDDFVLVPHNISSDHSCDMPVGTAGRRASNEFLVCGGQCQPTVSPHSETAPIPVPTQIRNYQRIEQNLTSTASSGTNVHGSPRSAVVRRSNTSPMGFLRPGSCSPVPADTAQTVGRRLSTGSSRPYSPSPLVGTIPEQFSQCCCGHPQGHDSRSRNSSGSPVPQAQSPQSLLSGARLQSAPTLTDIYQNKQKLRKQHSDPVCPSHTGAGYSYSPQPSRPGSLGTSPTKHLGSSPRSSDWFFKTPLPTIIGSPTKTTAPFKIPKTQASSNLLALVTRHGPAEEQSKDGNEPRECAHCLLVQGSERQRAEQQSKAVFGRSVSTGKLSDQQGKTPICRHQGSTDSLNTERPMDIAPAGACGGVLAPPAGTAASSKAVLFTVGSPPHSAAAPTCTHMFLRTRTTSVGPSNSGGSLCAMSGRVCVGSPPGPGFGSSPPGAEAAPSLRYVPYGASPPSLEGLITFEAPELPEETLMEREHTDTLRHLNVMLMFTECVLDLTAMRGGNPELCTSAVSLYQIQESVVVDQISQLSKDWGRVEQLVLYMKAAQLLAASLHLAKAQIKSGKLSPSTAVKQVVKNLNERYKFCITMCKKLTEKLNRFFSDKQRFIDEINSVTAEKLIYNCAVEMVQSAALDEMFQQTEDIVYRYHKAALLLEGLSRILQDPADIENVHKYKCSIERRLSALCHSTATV
Tyrosine-protein kinase ITK/TSK (Homo sapiens), sequence (Q08881 whole entry): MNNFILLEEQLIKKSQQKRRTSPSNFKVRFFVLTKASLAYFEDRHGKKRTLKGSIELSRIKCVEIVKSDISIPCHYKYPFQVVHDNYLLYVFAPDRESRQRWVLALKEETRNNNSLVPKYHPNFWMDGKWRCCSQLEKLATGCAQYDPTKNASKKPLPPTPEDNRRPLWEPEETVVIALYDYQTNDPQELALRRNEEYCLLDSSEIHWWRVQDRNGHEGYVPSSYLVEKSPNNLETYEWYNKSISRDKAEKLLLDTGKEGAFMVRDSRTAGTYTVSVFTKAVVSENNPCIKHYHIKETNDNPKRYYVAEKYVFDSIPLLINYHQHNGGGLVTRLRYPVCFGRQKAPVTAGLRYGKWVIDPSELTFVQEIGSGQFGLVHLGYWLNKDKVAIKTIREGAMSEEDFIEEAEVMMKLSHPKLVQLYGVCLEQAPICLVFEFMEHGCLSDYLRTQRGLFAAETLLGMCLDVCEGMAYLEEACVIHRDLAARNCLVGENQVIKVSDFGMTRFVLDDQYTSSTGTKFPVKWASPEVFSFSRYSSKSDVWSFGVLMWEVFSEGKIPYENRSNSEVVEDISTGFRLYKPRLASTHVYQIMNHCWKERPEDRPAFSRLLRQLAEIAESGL

CN([C@@H]1CCc2c(CC(=O)O)c3cc(S(C)(=O)=O)ccc3n2C1)S(=O)(=O)c1ccc(F)cc1
inactive: residual activity [1] 100% | residual activity [2] 100% | residual activity [3] 100% | residual activity [4] 90% | residual activity [5] 75% | residual activity [6] 100% | residual activity [7] 71% | residual activity [8] 100% | residual activity [9] 93% | residual activity [10] 100% | residual activity [11] 100% | residual activity [12] 100% | residual activity [13] 100% | residual activity [14] 96% | residual activity [15] 61% | residual activity [16] 100% | residual activity [17] 100% | residual activity [18] 100% | residual activity [19] 100% | residual activity [20] 100% | residual activity [21] 100% | residual activity [22] 71% | residual activity [23] 83% | residual activity [24] 80% | residual activity [25] 100% | residual activity [26] 94% | inhibition [27] 41.4% | residual activity [28] 95% | residual activity [29] 100% | residual activity [30] 100% | residual activity [31] 100% | residual activity [32] 100% | residual activity [33] 82% | residual activity [34] 78% | residual activity [35] 100% | residual activity [36] 87% | residual activity [37] 68% | residual activity [38] 90% | residual activity [39] 84% | residual activity [40] 100% | residual activity [41] 100% | residual activity [42] 99% | inhibition [43] 45% | residual activity [44] 100%

CN([C@@H]1CCc2c(CC(=O)O)c3ccccc3n2C1)S(=O)(=O)c1ccc(F)cc1 [MK-7246]
inactive: residual activity [1] 100% | residual activity [2] 100% | residual activity [3] 100% | residual activity [4] 87% | residual activity [5] 100% | residual activity [6] 100% | residual activity [7] 78% | residual activity [8] 100% | residual activity [9] 100% | residual activity [10] 100% | residual activity [11] 100% | residual activity [12] 100% | residual activity [13] 100% | residual activity [14] 100% | residual activity [15] 69% | residual activity [16] 100% | residual activity [17] 100% | residual activity [18] 100% | residual activity [19] 100% | residual activity [20] 96% | residual activity [21] 100% | residual activity [22] 100% | residual activity [23] 100% | residual activity [24] 100% | residual activity [25] 100% | residual activity [26] 83% | residual activity [28] 96% | residual activity [29] 100% | residual activity [30] 100% | residual activity [31] 98% | residual activity [32] 100% | residual activity [33] 83% | residual activity [34] 100% | residual activity [35] 79% | residual activity [36] 100% | residual activity [37] 91% | residual activity [38] 100% | residual activity [39] 86% | residual activity [40] 95% | residual activity [41] 100% | residual activity [42] 100% | inhibition [43] 27.7% | residual activity [44] 100%
active: inhibition [27] 54%
